13 molecules from PMC6017214, “Rational Design of a New Class of Toll-Like Receptor 4 (TLR4) Tryptamine Related Agonists by Means of the Structure- and Ligand-Based Virtual Screening for Vaccine Adjuvant Discovery” (Molecules : A Journal of Synthetic Chemistry and Natural …, 2018) can be followed below.

In general, IC50 refers to the point on the concentration scale where inhibition reaches its midpoint. What is called melting point is the temperature, or range, at which the solid turns liquid. As a reminder, the Kd is a measure of binding affinity in units of concentration.

Series [1] concerns CHO-K1 (Chinese hamster ovary). Kind of series: MTT cytotoxicity assay. The format is cell-based. The note with it: Cricetulus griseus, CHO-K1 cells, 24 h exposure, mean of 2–3 independent measurements, read-out: IC50 and SEM. The method, then: The toxicity was estimated on the cell cultures in order to exclude the most toxic motifs from further development and to test whether the compounds might be used in the functional cell-model of TLR4. Standard MTT assay (Sigma Aldrich, Damrstadt, Germany) was applied according to the manufacturer’s protocol on the CHO-K1 (Chinese hamster ovary, ECACC, Salisbury, UK).
The IC50 values were calculated from the control-subtracted triplicates using non-linear regression (four parameters) of GraphPad Prism 5 software (GraphPad Software, La Jolla, CA, USA). Final IC50 and SEM value was obtained as a mean of 2–3 independent measurements (see Table 3).
Standard MTT assay (Sigma Aldrich, Darmstadt, Germany) was applied according to the manufacturer’s protocol on the CHO-K1 (Chinese hamster ovary, ECACC, Salisbury, UK) in order to compare the effect of different compound within the series. The cells were cultured according to ECACC recommended conditions and seeded in a density of 8000 per well. […] Cells were exposed to the tested compounds for 24 h. Then the medium was replaced by a medium containing 10 μM of MTT and cells were allowed to produce formazan for another approximately 3 h under surveillance. Thereafter, medium with MTT was sucked out and crystals of formazan were dissolved in DMSO (100 µL). Cell viability was assessed spectrophotometrically by the amount of formazan produced. Absorbance was measured at 570 nm with 650 nm reference wavelength on Synergy HT (BioTek, Winooski, VT, USA). IC50 was then calculated from the control—subtracted triplicates using non-linear regression (four parameters) of GraphPad Prism 5 software (GraphPad Software, La Jolla, CA, USA). Final IC50 and SEM value was obtained as a mean of 2–3 independent measurements.
For orientation: Tetrazolium dyes change colour on reduction, which living cells bring about.

A further series addresses T1, hTLR4/MD2 receptor (Homo sapiens, UniProt O00206+Q9Y6Y9).
T1 construct: host or cells: HEK-Blue-hTLR4 cells
Kind of series: In vitro hTLR4/MD2 activity assessment in HEK-Blue-hTLR4 reporter cells (SEAP). The format is cell-based. The note with it: 10 µM, 16 h, relative to MPLA at same concentration, n = 3. The method, then: Aliquots of 20 µL of each compound was added into the well containing 25000 HEK-Blue™-hTLR4 cells (Invivogen, Toulouse, France) and the final concentration of compound in each well was 10 µM. Each concentration was evaluated in triplicate. Synthetic MPLAs (Invivogen) of the same concentration was used as positive control, apyrogenous saline F1 (BBraun, Prague, Czech Republic) was used as negative control. Plates were incubated overnight for 16 h at 37 °C 5% CO2. After the incubation 20 μL aliquots of supernatant were collected and mixed with 200 μL of SEAP detection media (QuantiBlue™, Invivogen) and incubated for 2 h at 37 °C 5% CO2. Absorbance of the solution was measured at 630 nm and activity of each compound expressed as a percentage of an activity of the MPLA of respective concentration was determined (n = 3).

Series [2] addresses T2, Recombinant hTRL4/MD2 complex (Homo sapiens, UniProt O00206+Q9Y6Y9).
T2 construct: purchased R&D Systems
Kind of series: Surface plasmon resonance direct binding (Biacore T200). The method, then:
To shed light on the prediction capabilities of vHTPS, direct binding of the best compound from the in vitro study (17) to the hTRL4/MD2 complex was investigated through Biospecific Interaction Analysis using the SPR-based biosensor Biacore T200 (GE Healthcare, Little Chalfont, UK).
Compound 17 was further analyzed using a series of concentrations from 6.25 up to 200 μM (binary dilution).
Surface plasmon resonance (SPR) experiments methodology was adapted from experiments by Svajger et al.. The experiments were performed using a Biacore T200 (GE Healthcare, Little Chalfont, UK) instrument equipped with a Series S—CM5 sensor chip (GE Healthcare). Dulbecco’s PBS supplied with 0.05% tween 20 and DMSO was used for immobilization of the protein. Recombinant human hTLR4/MD2 (R&D Systems, Minneapolis, MN, USA) was attached to the surface of the chip by amine coupling. The surface of flow cells 1 and 2 was initially activated with a 10-min pulse of a 1:1 mixture of 0.4 M 1-ethyl-3-(3-dimethylaminopropyl)-carbodiimide hydrochloride and 0.1 M N-hydroxysuccinimide, according to manufacturer recommendations. TLR4 was diluted into 10 mM sodium acetate buffer, pH 5.5, to a final concentration of 200 μg/mL, and injected twice for 600 s over the second flow cell. Both flow cells were blocked with a 10-min pulse of 1.0 M ethanolamine pH 8.5. The final capacity level was about 8000 RU. Analysis was performad in the running buffer consisting of Dulbecco’s PBS (10 mM Na2HPO4, 2 mM KH2PO4, 137 mM NaCl, 2 mM KCl, pH 7.4) supplemented with 1% DMSO (Sigma Aldrich, Darmstadt, Germany) and […]. All of the three hits from the cell-based assays were tested at two different concentrations: 20 μM and 200 μM. Each compound was injected for 1 min at a flow-rate of 30 μL/min, and the dissociation was monitored for 30 s. Regeneration was not needed, although 30 s of buffer-flow was used to stabilize the surface after each injection. […] We used the following concentrations for titration: 0, 6.25, 12.5, 25, 50, 100 and 200 μM.
(In general: In SPR one partner is held on a chip, and binding of the other changes the refractive index at the surface.)

In series [3] the test system is human Periferal blood mononuclear cells (PBMCs). Put plainly: Ex vivo stimulation of IL-6 production (ELISA). The class given is cell-based. The settings on record: 24 h; for ability to elicit IL-6 production (in words): 10 µM; for c (IL-6 production): 10 µM of each compound (MPLA 10 μM, LPS-RS 100 ng/mL), ELISA, dash = no IL-6 production found. The source says: Important factor in adjuvants development is wheter the compounds are capable to elicit immune response not only on reporter cells but on real immunocompetent cels. We have chosen ex vivo study on human Periferal blood mononuclear cells (PBMCs) to evaluate the ability to produce an interleukin 6 (IL-6). […] We have collected the blood samples from healthy donors. From those blood samples we had harvested PBMCs by standard protocol using Histopaque 1077 density gradient. PBMC specimens were frozen and kept in liquid nitrogen. The cells were incubated for 24 h with 10 µM (10% of lowest cytotoxic IC50—see the Section 2.5 and Section 2.6) of each compound and the ability to elicit IL-6 production was assessed. Synthetic MPLA (MPLAs) in equimolar concentration (10 μM) was used as a positive control and LPS from Rhodobacter sphaeroides 100 ng/mL (LPS-RS) as a negative control. IL-6 production was quantified by ELISA commercial kit (Sigma Aldrich) and results were interpreted by GraphPad Prism using Nonlinear Fit of RIA data function. […] Effect on other pro-inflamatory cytokines (e.g., IL-1) was not determined in this study and will be subject of ongoing study in order to explain discrepancy among in silico, in vitro and ex vivo findings. Furthermore study evaluating the influence of compounds on Th1/Th2/Th17 bias will be needed to thoroughly assess their adjuvant and immunomodulating potential. Nevertheless, despite such necesarry and laborious tasks novel TLR4 agonists and potential vaccine adjuvants have been found.
PBMCs was obtained by standard protocol using Histopaque 1077 gradient from whole blood of healthy donors. Cells were seeded at 25,000 cells per well and incubated for 24 h with final concentration 10 µM of each compound in triplicate (n = 3). After 24 h 100 µL of supernatant was collected from each well and level of IL-6 was determined by human IL-6 ELISA kit obtained from Sigma Aldrich (Darmstadt, Germany). Absorbance was measured at 450 nm wavelength on Synergy HT (BioTek). Level of IL-6 was calculated from standard curve using RIA nonlinear plot in Graph Pad Prism 6.
In general terms: ELISA stands for enzyme-linked immunosorbent assay.

Series [4] in a line: Stability of the solid compounds (observation). The format is physicochemical. The settings on record: solid state.

T2 sequence (O00206 24-631 limits assumed): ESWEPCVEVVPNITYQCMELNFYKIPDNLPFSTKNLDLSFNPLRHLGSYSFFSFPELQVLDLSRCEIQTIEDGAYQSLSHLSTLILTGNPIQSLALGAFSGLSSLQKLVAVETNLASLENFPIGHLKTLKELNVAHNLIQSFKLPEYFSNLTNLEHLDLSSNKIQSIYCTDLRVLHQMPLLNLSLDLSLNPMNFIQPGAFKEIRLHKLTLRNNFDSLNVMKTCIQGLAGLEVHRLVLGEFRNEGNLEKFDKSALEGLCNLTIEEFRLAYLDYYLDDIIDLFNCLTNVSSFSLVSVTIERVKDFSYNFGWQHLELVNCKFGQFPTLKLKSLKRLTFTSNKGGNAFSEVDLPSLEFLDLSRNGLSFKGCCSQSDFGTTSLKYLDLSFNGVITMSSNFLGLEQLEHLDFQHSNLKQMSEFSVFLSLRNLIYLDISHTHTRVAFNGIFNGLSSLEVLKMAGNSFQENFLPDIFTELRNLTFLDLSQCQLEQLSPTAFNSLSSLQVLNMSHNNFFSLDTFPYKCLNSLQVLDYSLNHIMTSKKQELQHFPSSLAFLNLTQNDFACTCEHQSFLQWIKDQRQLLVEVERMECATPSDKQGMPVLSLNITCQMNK
T2 sequence (Q9Y6Y9 17-160 limits assumed): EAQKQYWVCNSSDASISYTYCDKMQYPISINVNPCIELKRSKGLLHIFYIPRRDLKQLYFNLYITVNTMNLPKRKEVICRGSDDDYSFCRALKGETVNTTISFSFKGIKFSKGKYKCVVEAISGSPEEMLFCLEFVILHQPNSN
T1 sequence (O00206 24-839): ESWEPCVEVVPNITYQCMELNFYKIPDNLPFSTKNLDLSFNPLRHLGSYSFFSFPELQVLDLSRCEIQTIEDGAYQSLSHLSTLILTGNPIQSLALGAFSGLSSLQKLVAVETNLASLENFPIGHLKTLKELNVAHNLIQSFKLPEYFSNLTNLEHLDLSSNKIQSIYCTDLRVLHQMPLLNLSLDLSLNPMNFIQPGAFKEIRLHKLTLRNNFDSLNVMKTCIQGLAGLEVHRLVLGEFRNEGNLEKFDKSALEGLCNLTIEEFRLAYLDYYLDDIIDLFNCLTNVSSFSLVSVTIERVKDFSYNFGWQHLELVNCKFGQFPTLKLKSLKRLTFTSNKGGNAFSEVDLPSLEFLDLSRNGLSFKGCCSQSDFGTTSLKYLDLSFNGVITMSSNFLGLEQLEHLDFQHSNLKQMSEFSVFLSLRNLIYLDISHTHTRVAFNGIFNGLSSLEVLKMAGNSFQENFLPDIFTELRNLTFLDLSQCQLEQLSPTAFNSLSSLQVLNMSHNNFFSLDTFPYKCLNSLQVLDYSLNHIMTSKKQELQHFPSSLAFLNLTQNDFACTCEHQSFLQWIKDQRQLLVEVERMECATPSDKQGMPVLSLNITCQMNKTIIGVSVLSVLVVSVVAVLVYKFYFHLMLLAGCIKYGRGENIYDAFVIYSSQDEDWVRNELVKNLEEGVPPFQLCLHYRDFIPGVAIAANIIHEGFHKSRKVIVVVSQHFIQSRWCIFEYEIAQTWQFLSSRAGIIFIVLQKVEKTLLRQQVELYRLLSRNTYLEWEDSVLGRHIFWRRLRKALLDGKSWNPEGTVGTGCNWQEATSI
T1 sequence (Q9Y6Y9 17-160 limits assumed): as the sequence (Q9Y6Y9 17-160 limits assumed) above

Take `Cc1ccc(C(=O)NCCc2c[nH]c3ccccc23)cc1` [Compound 15, N-(2-(1H-Indol-3-yl)ethyl)-4-methylbenzamide]: the 50% inhibitory concentration (IC50) in series [1] was 197 ± 41 µM.
Regarding `O=C(NCCc1c[nH]c2ccccc12)c1ccc2c(c1)CCCC2` [Compound 23, N-(2-(1H-Indol-3-yl)ethyl)-5,6,7,8-tetrahydronaphthalene-2-carboxamide], the melting point lay in the range of 137 to 139 °C. The IC50 in series [1] was determined as 98 ± 6 µM.
As for `COc1ccc(C(=O)NCCc2c[nH]c3ccccc23)cc1` [Compound 16, N-(2-(1H-Indol-3-yl)ethyl)-4-methoxybenzamide], the melting point was in the range of 132.8 to 134.3 °C. The IC50 in series [1] came to 200 ± 7 µM.
As to `O=C(NCCc1c[nH]c2ccccc12)C1CCCCC1` [Compound 20, N-(2-(1H-Indol-3-yl)ethyl)cyclohexanecarboxamide], the melting point lay in the range of 104.8 to 106.3 °C. In addition, in series [1], the IC50 was found to be 211 ± 43 µM.
Regarding `O=C(NCCc1c[nH]c2ccccc12)c1ccc(Cl)cc1` [Compound 17, N-(2-(1H-Indol-3-yl)ethyl)-4-chlorobenzamide], the IC50 in series [1] was found to be 201 ± 8 µM. Further, the “activity of MPLA (hTLR4/MD2 agonist activity normalized to MPLA)” value on hTLR4/MD2 receptor is reported as “more than 20%”. Besides, the “dissociation (SPR, in words)” value in series [2] (6.25 up to 200 μM) is reported as “rapid dissociation rates”. Moreover, the Kd in series [2] (SPR, immobilized hTRL4/MD2, 6.25 up to 200 μM) was 0.747 µM. Moreover, the “direct binding to the hTRL4/MD2 complex (SPR, in words)” value in series [2] (immobilized recombinant hTRL4/MD2) is recorded as “direct binding to the hTRL4/MD2 complex was confirmed”. In addition, the “ability to elicit IL-6 production (in words)” value in series [3] is “did not shown any effect”.
The molecule `CC(C)CCC(=O)NCCc1c[nH]c2ccccc12` [Compound 25, N-(2-(1H-Indol-3-yl)ethyl)-4-methylpentanamide] registered a melting point of 45.1 to 47.1 °C. Besides, the IC50 in series [1] was 348 ± 35 µM. Also, the “stability of the compound (in words)” value in series [4] is recorded as “unwanted degradations from crystals to amorphous state”.
Turning to `O=C(NCCc1c[nH]c2ccccc12)c1ccccc1` [Compound 14, N-(2-(1H-Indol-3-yl)ethyl)benzamide], the IC50 in series [1] came to 297 ± 17 µM. Also, in series [3], the “ability to elicit IL-6 production (in words)” value is “significantly induce production of IL-6” and the “c (IL-6 production)” value is 53.501 pg/mL.
Molecule `O=C(NCCc1c[nH]c2ccccc12)c1ccc(Cl)c(Cl)c1` [Compound 18, N-(2-(1H-Indol-3-yl)ethyl)-3,4-dichlorobenzamide] registered a melting point of 112.4 to 113.9 °C. In series [1], the 50% inhibitory concentration (IC50) was 892 ± 122 µM.
Consider “Monophosphoryl lipid A [MPLA, reference compound]”, for which the “c (IL-6 production)” value in series [3] is given as 3078.97 pg/mL.
In turn, `O=C(NCCc1c[nH]c2ccccc12)C1CCCCCC1` [Compound 24, N-(2-(1H-Indol-3-yl)ethyl)cycloheptanecarboxamide] showed a melting point of 88.4 to 90.4 °C. For the same molecule, the IC50 in series [1] amounted to 170 ± 10 µM. For the same molecule, the “stability of the compound (in words)” value in series [4] was “unwanted degradations from crystals to amorphous state”.
Molecule `O=C(NCCc1c[nH]c2ccccc12)c1ccc2ccccc2c1` [Compound 19, N-(2-(1H-Indol-3-yl)ethyl)-2-naphthamide] came in with a melting point of 193.2 to 195 °C. In series [1], the IC50 worked out at 155 ± 12 µM.
The molecule `O=C(NCCc1c[nH]c2ccccc12)C1CCc2ccccc2C1` (stereo not drawn) [Compound 22, N-(2-(1H-Indol-3-yl)ethyl)-1,2,3,4-tetrahydronaphthalene-2-carboxamide] displayed a melting point of 123.2 to 125.2 °C. Moreover, the IC50 in series [1] came out at 128 ± 8 µM. Besides, the “activity of MPLA (hTLR4/MD2 agonist activity normalized to MPLA)” value at hTLR4/MD2 receptor is recorded as roughly 10%. In series [3], the “ability to elicit IL-6 production (in words)” value was “significantly induce production of IL-6” and the “c (IL-6 production)” value is listed as 147.64 pg/mL.
On to `O=C(NCCc1c[nH]c2ccccc12)c1cccc2ccccc12` [Compound 21, N-(2-(1H-Indol-3-yl)ethyl)-1-naphthamide], for which the melting point lay in the range of 164.5 to 166.5 °C.
